Assay results published in patent publication US10864197B2, “Biphenyl sulfonamide compounds for the treatment of kidney diseases or disorders” (Retrophin, Inc., priority 2016, dated 2020).

Test system: patients with primary focal segmental glomerulosclerosis (FSGS)
Experiment: DUET phase 2 trial: change in urine protein to creatinine (UP/C) ratio, proteinuria
Format: in vivo, human
Conditions: for Complete remission (UP/C ratio <0.3 g/g), number of patients: 8-week double-blind period; for Reduction from Baseline in UP/C ratio (geometric least squares mean reduction) / Reduction from Baseline in UP/C ratio, intent-to-treat analysis: baseline to week 8; for Reduction from Baseline in UP/C ratio, intent-to-treat analysis: missing data imputed as zero change; for Proportion of patients who achieved UP/C ratio ≤1.5 g/g with >40% reduction: week 8; for percentage of patients achieving UP/C ratio ≤1.5 g/g with >40% reduction during open-label period: 8 weeks to 48 weeks
Source text: DUET trial is a phase 2, double-blind, randomized, active-control, dose-escalation study (NCT01613118) that evaluates the efficacy and safety of sparsentan as a treatment for primary focal segmental glomerulosclerosis (FSGS), a rare disorder characterized by massive proteinuria and progressive loss of kidney function. Patients (ranging in age from 8 years to 75 years) with biopsy-proven primary FSGS (or documentation of a genetic mutation in a podocyte protein associated with the disease) having baseline urine protein to creatinine (“UP/C”) ratios greater than […] and estimated glomerular filtration rates greater than 30 ml/min were eligible for the study. The inclusion criteria also included a mean seated blood pressure >[…] and <145/96 mmHg for patients aged 18 years or older, or, for patients aged <18 years of age, a mean seated blood pressure of >90/60 mmHg and <95th percentile for age, gender, and height. The inclusion criteria included an allowance for a stable dose of immunosuppressive medication for ≥1 month. […] Patients who signed consent and met all inclusion and exclusion criteria during the screening phase underwent a 2-week angiotensin receptor blocker (ARB) and angiotensin converting enzyme (ACE) inhibitor washout period before being randomly assigned to one of the three escalating dose cohorts receiving sparsentan (200 mg/day; 400 mg/day; and 800 mg/day) or a fixed maximal dose of active control (the ARB irbesartan, at 300 mg/day) in a 3:1 ratio within each cohort. The primary endpoint was the change in UP/C ratio (determined as a measure of urinary protein excretion) from baseline. […] After the completion of an 8-week double-blind period, the patients continued sparsentan treatment on their assigned doses in an open-label extension for 136 additional weeks. Irbesartan control arm patients were offered sparsentan treatment at the dose they would have received according to the double-blind dose group in which they were enrolled. The analysis of the primary endpoint included 96 randomized patients who received at least one dose of the study drug, and had both baseline and week 8 UP/C ratio values (i.e., had completed 8 weeks of double-blind treatment). The pre-specified analysis order was (1) all sparsentan doses vs. irbesartan; (2) sparsentan 800- and 400-mg doses vs. irbesartan; (3) sparsentan 400-mg dose vs. irbesartan; (4) sparsentan 800-mg dose vs. irbesartan. Baseline or week 8 UP/C ratio data were missing for 9 sparsentan-treated patients and 4 irbesartan-treated patients. An intent-to-treat analysis was conducted, in which the missing data were imputed as zero change in UP/C ratio. […] The results across sparsentan dose cohorts were similar to those observed without imputed data (Table 4).

[1] = Baseline, sparsentan 200-800 mg/day (n=64), irbesartan 300 mg/day (n=32)
[2] = Baseline, sparsentan 400-800 mg/day (n=51), irbesartan 300 mg/day (n=25)
[3] = Week 8, sparsentan 200-800 mg/day (n=64), irbesartan 300 mg/day (n=32)
[4] = Week 8, sparsentan 400-800 mg/day (n=51), irbesartan 300 mg/day (n=25)
[5] = dose cohort 200 mg sparsentan, irbesartan 300 mg/day
[6] = dose cohort 400 mg and 800 mg sparsentan, irbesartan 300 mg/day
[7] = dose cohort 400 mg sparsentan, irbesartan 300 mg/day
[8] = dose cohort 800 mg sparsentan, irbesartan 300 mg/day
[9] = dose cohort All (sparsentan 200-800 mg/day; irbesartan 300 mg/day)
[10] = sparsentan 200-800 mg/day (n=64), irbesartan 300 mg/day (n=32)
[11] = sparsentan 400-800 mg/day (n=51), irbesartan 300 mg/day (n=25)

Row | SMILES | Complete remission (UP/C ratio <0.3 g/g), number of patients | UP/C ratio, maximum [1] [g/g] | UP/C ratio, mean (SD) [1] | UP/C ratio, median [1] [g/g] | UP/C ratio, minimum [1] [g/g] | UP/C ratio, maximum [2] [g/g] | UP/C ratio, mean (SD) [2] | UP/C ratio, median [2] [g/g] | UP/C ratio, minimum [2] [g/g] | UP/C ratio, maximum [3] [g/g] | UP/C ratio, mean (SD) [3] | UP/C ratio, median [3] [g/g] | UP/C ratio, minimum [3] [g/g] | UP/C ratio, maximum [4] [g/g] | UP/C ratio, mean (SD) [4] | UP/C ratio, median [4] [g/g] | UP/C ratio, minimum [4] [g/g] | Reduction from Baseline in UP/C ratio (geometric least squares mean reduction) [5] [%] | Reduction from Baseline in UP/C ratio (geometric least squares mean reduction) [6] [%] | Reduction from Baseline in UP/C ratio (geometric least squares mean reduction) [7] [%] | other results
1 | CCCCC1=NC2(CCCC2)C(=O)N1Cc1ccc(-c2ccccc2-c2nnn[nH]2)cc1 [Irbesartan, irbesartan, reference compound] | in no irbesartan-treated patients | 10.73 | 4.017 (2.6717) g/g | 3.265 | 0.88 | 10.73 | 3.816 (2.7160) g/g | 2.970 | 0.88 | 10.19 | 3.164 (2.2713) g/g | 2.405 | 0.43 | 10.19 | 2.990 (2.3598) g/g | 2.390 | 0.43 | 15.0 | 19.0 | 28.1 | Reduction from Baseline in UP/C ratio (geometric least squares mean reduction) (dose cohort 400 mg and 800 mg sparsentan, irbesartan 300 mg/day, listed as irbesartan): 19%; Reduction from Baseline in UP/C ratio (geometric least squares mean reduction) [8]: 9.3%; Reduction from Baseline in UP/C ratio (geometric least squares mean reduction) [9]: 18.5%; Reduction from Baseline in UP/C ratio (geometric least squares mean reduction) (dose cohort All (sparsentan 200-800 mg/day; irbesartan 300 mg/day), listed as irbesartan): 19%; Reduction from Baseline in UP/C ratio, intent-to-treat analysis (dose cohort 200 mg): 13.2%; Reduction from Baseline in UP/C ratio, intent-to-treat analysis (dose cohort 400 mg): 23.6%; Reduction from Baseline in UP/C ratio, intent-to-treat analysis (dose cohort 400 mg and 800 mg): 15.9%; Reduction from Baseline in UP/C ratio, intent-to-treat analysis (dose cohort 800 mg): 9.7%; Reduction from Baseline in UP/C ratio, intent-to-treat analysis (dose cohort All): 15.7%; % Change from Baseline to Week 8 in UP/C ratio, geometric LSmeans [10]: −18.5%; % Change from Baseline to Week 8 in UP/C ratio, geometric LSmeans [11]: −19.0%; Proportion of patients who achieved UP/C ratio ≤1.5 g/g with >40% reduction (dose cohort 200 mg): 0.0%; Proportion of patients who achieved UP/C ratio ≤1.5 g/g with >40% reduction (dose cohort 400 mg): 17.7%; Proportion of patients who achieved UP/C ratio ≤1.5 g/g with >40% reduction (dose cohort 400 mg and 800 mg): 12.0%; Proportion of patients who achieved UP/C ratio ≤1.5 g/g with >40% reduction (dose cohort 800 mg): 0.0%; Proportion of patients who achieved UP/C ratio ≤1.5 g/g with >40% reduction (dose cohort All): 9.4%; Proportion of patients who achieved UP/C ratio ≤1.5 g/g with >40% reduction (dose cohort All, listed as irbesartan): 9%
2 | CCCCC1=NC2(CCCC2)C(=O)N1Cc1ccc(-c2ccccc2S(=O)(=O)Nc2noc(C)c2C)c(COCC)c1 [Sparsentan, 4′-((2-butyl-4-oxo-1,3-diazaspiro[4.4]non-1-en-3-yl)methyl)-N-(4,5-dimethylisoxazol-3-yl)-2′-(ethoxymethyl)-[1,1′-biphenyl]-2-sulfonamide] | 4 patients | 18.66 | 4.707 (3.7810) g/g | 3.620 | 0.43 | 18.66 | 4.824 (4.0506) g/g | 3.530 | 0.43 | 14.47 | 3.300 (3.5719) g/g | 1.980 | 0.12 | 14.47 | 3.208 (3.4738) g/g | 1.900 | 0.12 | 33.1 | 47.4 | 52.7 | percentage of patients achieving UP/C ratio ≤1.5 g/g with >40% reduction during open-label period (patients continuing to receive sparsentan): increased; percentage of patients achieving UP/C ratio ≤1.5 g/g with >40% reduction during open-label period (patients switched from irbesartan to sparsentan): increased; Reduction from Baseline in UP/C ratio (geometric least squares mean reduction) (dose cohort 400 mg and 800 mg sparsentan, irbesartan 300 mg/day, listed as sparsentan): 47%; Reduction from Baseline in UP/C ratio (geometric least squares mean reduction) [8]: 41.3%; Reduction from Baseline in UP/C ratio (geometric least squares mean reduction) [9]: 44.8%; Reduction from Baseline in UP/C ratio (geometric least squares mean reduction) (dose cohort All (sparsentan 200-800 mg/day; irbesartan 300 mg/day), listed as sparsentan): 45%; Reduction from Baseline in UP/C ratio, intent-to-treat analysis (dose cohort 200 mg): 33.1%; Reduction from Baseline in UP/C ratio, intent-to-treat analysis (dose cohort 400 mg): 50.5%; Reduction from Baseline in UP/C ratio, intent-to-treat analysis (dose cohort 400 mg and 800 mg): 44.8%; Reduction from Baseline in UP/C ratio, intent-to-treat analysis (dose cohort 800 mg): 38.4%; Reduction from Baseline in UP/C ratio, intent-to-treat analysis (dose cohort All): 42.7%; % Change from Baseline to Week 8 in UP/C ratio, geometric LSmeans [10]: −44.8%; % Change from Baseline to Week 8 in UP/C ratio, geometric LSmeans [11]: −47.4%; Proportion of patients who achieved UP/C ratio ≤1.5 g/g with >40% reduction (dose cohort 200 mg): 15.4%; Proportion of patients who achieved UP/C ratio ≤1.5 g/g with >40% reduction (dose cohort 400 mg): 38.1%; Proportion of patients who achieved UP/C ratio ≤1.5 g/g with >40% reduction (dose cohort 400 mg and 800 mg): 31.4%; Proportion of patients who achieved UP/C ratio ≤1.5 g/g with >40% reduction (dose cohort 800 mg): 26.7%; Proportion of patients who achieved UP/C ratio ≤1.5 g/g with >40% reduction (dose cohort All): 28.1%; Proportion of patients who achieved UP/C ratio ≤1.5 g/g with >40% reduction (dose cohort All, listed as sparsentan): 28%
